Assay: RSV-A Assay : Hep-2 cells, (originally derived from tumors grown in irradiated-cortisonised weanling rats that had been injected with epidermoid carcinoma tissue from a person's larynx, but later found to be indistinguishable from HeLa cells by PCR DNA analysis), were used for the culturing of genotype A, “Long” strain RSV. Flasks were inoculated with RSV and viral stocks were collected once cytopathic effect (CPE) was greater than 90%. Viral stocks in 25% sucrose media were snap frozen using liquid nitrogen to increase viral stability. Viral stock titers were quantified by tissue culture infectious dose 50% (TCID50) using 8,000 cells per well and 3-fold viral dilutions across a 96-well plate, cultured for 4 days. Viral stock titers were also quantified by a plaque forming unit assay, as described elsewhere.Following extensive parameter testing, the final assay is run as follows: Hep-2 cells are seeded into the inner 60 wells of a 96-well plate at 8,000 cells per well in a volume of 50 μL using Growth Media (DMEM without phenol red, 1% L-Glut, 1% Penn/Strep, 1% nonessential amino acids, 10% heat-inactivated FBS). 2-fold serial dilutions of control and test compounds are added to the wells in duplicate in a total volume of 25 μL. Viral stock is then added to the wells at a multiplicity of infection (MOI) of 0.1 in a volume of 25 μL, bringing the total volume of each well to 100 μL. The MOI is calculated using the PFU/mL, or TCID50 if unavailable. Each 96-well plate has a control column of 6 wells with cells and virus but no compound (negative control, max CPE), a column with cells but no compound or virus (positive control, minimum CPE), and a column with no cells or virus or compound (background plate/reagent control). The control wells with cells but no virus are given an additional […], of growth media containing an equal quantity of sucrose as those wells receiving the viral stock in order to keep consistent in media and volume conditions. The outer wells of the plate are filled with 125 μL of moat media (DMEM, 1% Penn/Strep) to act as a thermal and evaporative moat around the test wells. Following a 5-day incubation period, the plates are read using ATPlite (50 uL added per well), which quantifies the amount of ATP (a measure of cell health) present in each well. Assay plates are read using the Envision luminometer.

Row | Structure (SMILES) | EC50 [nM]
1 | COc1cnc(C(=O)NC[C@](O)(c2cc3c(c(-c4ccc(F)cc4)n2)OC[C@@]3(N)C(F)(F)F)C(F)(F)F)cc1OC | > 200
2 | COc1cc(C(=O)NC[C@](O)(c2cc3c(c(-c4ccc(F)cc4)n2)OC[C@@]3(N)C(F)(F)F)C(F)(F)F)cc(F)c1OC1CC1 | > 200
3 | COc1cc(C(=O)NC[C@](O)(c2cc3c(c(-c4ccc(F)cc4)n2)OC[C@@]3(N)C(F)(F)F)C2CC2)cc2cn(C)nc12 | < 200
4 | COc1cc(F)c(C(=O)NC[C@](O)(c2cc3c(c(-c4ccc(F)cc4)n2)OC[C@@]3(N)C(F)(F)F)C(F)(F)F)cc1OC | > 200
5 | COC[C@](O)(CNC(=O)c1ccc(OC2CC2)c(OC)c1)c1cc2c(c(-c3ccc(F)cc3)n1)OC[C@@]2(N)C(F)(F)F | < 200
6 | Cc1ccc2cc(C(=O)NC[C@](O)(c3cc4c(c(-c5ccc(F)cc5)n3)OC[C@@]4(N)C(F)(F)F)C3CC3)cc(OC3CC3)c2n1 | < 200
7 | N[C@@]1(C(F)(F)F)COc2c1cc([C@@](O)(CNC(=O)c1cc(OC3CC3)c3[nH]c(=O)ccc3c1)C1CC1)nc2-c1ccc(F)cc1 | > 200
8 | COc1cc(C(=O)NC[C@](O)(c2cc3c(c(-c4ccc(F)cc4)n2)OC[C@@]3(N)C(F)(F)F)C2COC2)ccc1OC1CC1 | > 200
9 | COc1cc(C(=O)NC[C@@](O)(CO)c2cc3c(c(-c4ccc(F)cc4)n2)OC[C@@]3(N)C(F)(F)F)ccc1OC1CC1 | < 200
10 | N[C@@]1(C(F)(F)F)COc2c1cc([C@@](O)(CNC(=O)c1cc(OC3CC3)c3nn(C4CC4)cc3c1)C1CC1)nc2-c1ccc(F)c(Cl)c1 | < 200
11 | COc1cc(C(=O)NC[C@](O)(c2cc3c(c(-c4ccc(F)cc4)n2)OC[C@@]3(N)C(F)(F)F)C(F)(F)F)ccc1OCCO | > 200
12 | COc1cc(C(=O)NC[C@](O)(c2cc3c(c(-c4ccc(F)cc4)n2)OC[C@@]3(N)C(F)(F)F)C(F)(F)F)nc2ccccc12 | > 200
13 | COc1cc(C(=O)NC[C@](C)(O)c2cc3c(c(-c4ccc(F)cc4)n2)OC[C@@]3(NS(=O)(=O)C(C)(C)C)C(F)(F)F)cc2cccnc12 | > 200
14 | COc1cc(C(=O)NC[C@@](O)(c2cc3c(c(-c4ccc(F)cc4)n2)OC[C@]3(N)C(F)(F)F)C(F)(F)F)ccc1OCCO | > 200
15 | N[C@@]1(C(F)(F)F)COc2c1cc([C@@](O)(CNC(=O)c1ccc(OC3CC3)c(OC3CC3)c1)C1CC1)nc2-c1ccc(F)c(F)c1 | < 200
16 | COc1cc(C(=O)NC[C@](O)(c2cc3c(c(-c4ccc(F)cc4)n2)OC[C@]3(N)C(F)(F)F)C(F)(F)F)ccc1OCCO | > 200
17 | COc1cc(C(=O)NC[C@](O)(c2cc3c(c(-c4ccc(F)cc4)n2)OC[C@@]3(N)C(F)(F)F)C(F)(F)F)ccc1C(F)(F)F | > 200
18 | C[C@](O)(CNC(=O)c1cc(OC2CC2)c2ncccc2c1)c1cc2c(c(-c3ccc(F)c(Cl)c3)n1)OC[C@@]2(N)C(F)(F)F | > 200
19 | CC(C)(C)S(=O)(=O)N[C@@]1(C(F)(F)F)COc2c1cc([C@@](C)(O)CNC(=O)c1cc(OC3CC3)c3ncccc3c1)nc2-c1ccc(F)cc1 | > 200
20 | N[C@@]1(C(F)(F)F)COc2c1cc([C@@](O)(CNC(=O)c1cc(OC3CC3)c3nn(C4CC4)cc3c1)C1CC1)nc2-c1ccc(F)cc1 | < 200
21 | COc1ccc(C(=O)NC[C@](O)(c2cc3c(c(-c4ccc(F)cc4)n2)OC[C@@]3(N)C(F)(F)F)C(F)(F)F)cc1OC | > 200

Row | Structure (SMILES) | EC50 [nM]
22 | N[C@@]1(C(F)(F)F)COc2c1cc([C@@](O)(CNC(=O)c1cc(OC3CC3)c3ncccc3c1)C1CC1)nc2-c1ccc(F)c(Cl)c1 | < 200
23 | COc1cccc2cc(C(=O)NC[C@](O)(c3cc4c(c(-c5ccc(F)cc5)n3)OC[C@@]4(N)C(F)(F)F)C(F)(F)F)cnc12 | > 200
24 | COc1cc(C(=O)NCC(C)c2cc3c(c(-c4ccc(F)c(F)c4)n2)OC[C@@]3(N)C(F)(F)F)ccc1OC1CC1 (stereo partly specified) | > 200
25 | COC(=O)N[C@@]1(C(F)(F)F)COc2c1cc([C@@](O)(CNC(=O)c1ccc(OC3CC3)c(OC)c1)C(F)(F)F)nc2-c1ccc(F)cc1 | > 200
26 | N[C@@]1(C(F)(F)F)COc2c1cc([C@@](O)(CNC(=O)c1cc(OC3CC3)c3nc(Cl)ccc3c1)C1CC1)nc2-c1ccc(F)cc1 | < 200
27 | N[C@@]1(C(F)(F)F)COc2c1cc([C@@](O)(CNC(=O)c1ccc(OC3CC3)c(OC3CC3)c1)C1CC1)nc2-c1ccc(F)c(Cl)c1 | < 200
28 | N[C@@]1(C(F)(F)F)COc2c1cc([C@](O)(CO)CNC(=O)c1cc(OC3CC3)c3ncccc3c1)nc2-c1ccc(F)cc1 | > 200
29 | COc1cc(C(=O)NC[C@](O)(c2cc3c(c(-c4ccc(F)cc4)n2)OC[C@@]3(N)C(F)(F)F)C2CC2)cc2sc(N)nc12 | < 200
30 | COc1cc(C(=O)NC[C@](O)(c2cc3c(c(-c4ccc(F)cc4)n2)OC[C@@]3(N)C(F)(F)F)C(F)(F)F)ccc1OCC(C)C | > 200
31 | COC[C@](O)(CNC(=O)c1cc(OC2CC2)c2ncccc2c1)c1cc2c(c(-c3ccc(F)cc3)n1)OC[C@@]2(N)C(F)(F)F | < 200
32 | Nc1nc2ccc(C(=O)NC[C@](O)(c3cc4c(c(-c5ccc(F)cc5)n3)OC[C@@]4(N)C(F)(F)F)C3CC3)cc2s1 | < 200
33 | COc1ccc2nc(C(=O)NC[C@](O)(c3cc4c(c(-c5ccc(F)cc5)n3)OC[C@@]4(N)C(F)(F)F)C(F)(F)F)cc(OC)c2c1 | > 200
34 | Nc1nc2c(F)cc(C(=O)NC[C@](O)(c3cc4c(c(-c5ccc(F)cc5)n3)OC[C@@]4(N)C(F)(F)F)C3CC3)cc2s1 | < 200
35 | N[C@@]1(C(F)(F)F)COc2c1cc([C@@](O)(CNC(=O)c1cc(OC3CC3)c3c(ccc[n+]3[O-])c1)C1CC1)nc2-c1ccc(F)cc1 | > 200
36 | COCCOc1ccc(C(=O)NC[C@](O)(c2cc3c(c(-c4ccc(F)cc4)n2)OC[C@@]3(N)C(F)(F)F)C(F)(F)F)cc1OC | > 200
37 | COc1cc(C(=O)NC[C@H](O)c2cc3c(c(-c4ccc(F)cc4)n2)OC[C@@]3(N)C(F)(F)F)ccc1OC1CC1 | > 200
38 | Cn1cc2cc(C(=O)NC[C@](O)(c3cc4c(c(-c5ccc(F)cc5)n3)OC[C@@]4(N)C(F)(F)F)C3CC3)cc(OC3CC3)c2n1 | < 200
39 | Cn1cc2cc(C(=O)NC[C@](O)(c3cc4c(c(-c5ccc(F)cc5)n3)OC[C@@]4(N)C(F)(F)F)C3CC3)cc(F)c2n1 | < 200
40 | N[C@@]1(C(F)(F)F)COc2c1cc([C@@](O)(CNC(=O)c1cc(OC3CC3)c3ncccc3c1)C1COC1)nc2-c1ccc(F)cc1 | > 200
41 | C[C@](O)(CNC(=O)c1ccc(OC2CC2)c(OC2CC2)c1)c1cc2c(c(-c3ccc(F)c(Cl)c3)n1)OC[C@@]2(N)C(F)(F)F | < 200

Reference: ChEMBL document CHEMBL5729275 (2022)
